The results in this text go back to ChEMBL document CHEMBL4219129, “Design, synthesis and biological evaluation of spiropyrimidinetriones oxazolidinone derivatives as antibacterial agents” (2018).

Holding throughout (format): functional
In test [1] the test system is Enterococcus faecium. As to the kind of experiment: Antibacterial activity against Enterococcus faecium ATCC 19434.
Test [2] concerns Staphylococcus aureus. As to the kind of experiment: Antibacterial activity against methicillin-resistant Staphylococcus aureus 562.
The subject of test [3] is Enterococcus faecium. As to the kind of experiment: Antibacterial activity against Enterococcus faecium ATCC 35667.
Test [4] deals with Staphylococcus epidermidis. In words: Antibacterial activity against methicillin-resistant Staphylococcus epidermidis ATCC 35984.
In test [5] the test system is Enterococcus faecium. As to the kind of experiment: Antibacterial activity against vancomycin-resistant Enterococcus faecium R1.
Test [6] concerns Staphylococcus aureus. As to the kind of experiment: Antibacterial activity against linezolid-resistant Staphylococcus aureus O-128.
Test [7] concerns Enterococcus faecium. As to the kind of experiment: Antibacterial activity against Enterococcus faecium 575.
Test [8] has as its system Enterococcus faecium. As to the kind of experiment: Antibacterial activity against vancomycin-resistant Enterococcus faecium 134.
Test [9] has as its system Escherichia coli. As to the kind of experiment: Antibacterial activity against Escherichia coli MG1655. The note with it: K-12 substr. MG1655.
Test [10] relates to Staphylococcus epidermidis. As to the kind of experiment: Antibacterial activity against Staphylococcus epidermidis ATCC 12228.
Test [11] relates to Staphylococcus aureus. As to the kind of experiment: Antibacterial activity against Staphylococcus aureus ATCC 29213.
Test [12] has as its system Staphylococcus epidermidis. In words: Antibacterial activity against linezolid-resistant Staphylococcus epidermidis 1089191.
The test system of test [13] is Staphylococcus aureus. As to the kind of experiment: Antibacterial activity against methicillin-resistant Staphylococcus aureus DB-00026.
In a further test the test system is Enterococcus faecalis. In words: Antibacterial activity against linezolid-resistant Enterococcus faecalis ATCC 29212.
In test [14] the test system is Escherichia coli. As to the kind of experiment: Antibacterial activity against TolC-deficient Escherichia coli.
Test [15] has as its system Enterococcus faecium. In words: Antibacterial activity against linezolid-resistant Enterococcus faecium 303.
The test system of test [16] is Enterococcus faecium. As to the kind of experiment: Antibacterial activity against vancomycin-resistant Enterococcus faecium 03080 DS.
The subject of test [17] is Staphylococcus aureus. As to the kind of experiment: Antibacterial activity against […] Staphylococcus aureus ATCC 13709 SMITH.
For test [18], the system named is Staphylococcus aureus. As to the kind of experiment: Antibacterial activity against methicillin-resistant Staphylococcus aureus USA300 BAA-1556.
In test [19] the test system is Staphylococcus aureus. As to the kind of experiment: Antibacterial activity against PVL positive Staphylococcus aureus.
The test system of test [20] is Staphylococcus epidermidis. As to the kind of experiment: Antibacterial activity against linezolid-resistant Staphylococcus epidermidis 1117174.
Test [21] has as its system Enterococcus faecium. As to the kind of experiment: Antibacterial activity against vancomycin-resistant Enterococcus faecium 31/132.
Test [22] has as its system Staphylococcus aureus. As to the kind of experiment: Antibacterial activity against Staphylococcus aureus FDA 209P.
In test [23] the test system is Staphylococcus aureus. As to the kind of experiment: Antibacterial activity against methicillin-resistant Staphylococcus aureus 1201984.
Test [24] relates to Staphylococcus aureus. As to the kind of experiment: Antibacterial activity against Staphylococcus aureus Mu50 ATCC 700699.

Values after ≈ are worked out from the molar mass of the structure shown.

As a reminder, the MIC is the lowest concentration found to suppress growth. Consider `CC(=O)NC[C@H]1CN(c2ccc(N3CCOCC3)c(F)c2)C(=O)O1` [LINEZOLID], for which the MIC in the test with Enterococcus faecium [1] is 2 to 4 µg/mL (≈ 5.93 to 11.9 µM); against Staphylococcus aureus [2], 2 to 4 µg/mL (≈ 5.93 to 11.9 µM); with Enterococcus faecium [3], 0.5 µg/mL (≈ 1.48 µM); in test [4], 2 µg/mL (≈ 5.93 µM); with Enterococcus faecium [5], 4 µg/mL (≈ 11.9 µM); in the test with Staphylococcus aureus [6], 2 to 32 µg/mL (≈ 5.93 to 94.9 µM). The MIC was 2 µg/mL (≈ 5.93 µM) with Enterococcus faecium [7]; 2 µg/mL (≈ 5.93 µM) with Enterococcus faecium [8]; above 32 µg/mL with Escherichia coli [9]; 2 to 4 µg/mL (≈ 5.93 to 11.9 µM) in test [10]; 2 to 4 µg/mL (≈ 5.93 to 11.9 µM) against Staphylococcus aureus [11]; above 32 µg/mL in test [12]. The minimum inhibitory concentration (MIC) is 2 to 4 µg/mL (≈ 5.93 to 11.9 µM) against Staphylococcus aureus [13]; above 32 µg/mL in the test with Enterococcus faecalis; 2 to 8 µg/mL (≈ 5.93 to 23.7 µM) in the test on Escherichia coli [14]; above 32 µg/mL against Enterococcus faecium [15]; 2 µg/mL (≈ 5.93 µM) with Enterococcus faecium [16]; 2 to 32 µg/mL (≈ 5.93 to 94.9 µM) in the test on Staphylococcus aureus [17]. Further, the minimum inhibitory concentration (MIC) is 2 to 4 µg/mL (≈ 5.93 to 11.9 µM) in the test with Staphylococcus aureus [18]; 0.5 to 4 µg/mL (≈ 1.48 to 11.9 µM) with Staphylococcus aureus [19]; above 32 µg/mL in test [20]; 2 µg/mL (≈ 5.93 µM) with Enterococcus faecium [21]; 4 to 32 µg/mL (≈ 11.9 to 94.9 µM) in the test with Staphylococcus aureus [22].

As to `O=C1NC(=O)C2(Cc3cc(N4C[C@H](CO)OC4=O)ccc3N3CCOCC32)C(=O)N1` (some centres not stated), the MIC (with Staphylococcus aureus [2]; in [4]; in the test with Staphylococcus aureus [6]; against Escherichia coli [9]; in the test with Staphylococcus aureus [23]; in the test on Staphylococcus aureus [24]) was above 32 µg/mL throughout. The MIC (in [10]; against Staphylococcus aureus [11]; in test [12]; against Staphylococcus aureus [13]; in the test with Escherichia coli [14]; against Staphylococcus aureus [17]) was above 32 µg/mL in each case. In addition, the MIC is above 32 µg/mL in the test with Staphylococcus aureus [18], above 32 µg/mL against Staphylococcus aureus [19], 32 µg/mL (≈ 76.9 µM) in [20] and above 32 µg/mL against Staphylococcus aureus [22].

As for `CC(=O)NC[C@H]1CN(c2ccc(-c3ccc4c(c3)CC3(C(=O)NNC3=O)C3CCCN43)c(F)c2)C(=O)O1` (some centres not stated), the minimum inhibitory concentration (MIC) against Staphylococcus aureus [2] was 8 µg/mL (≈ 15.8 µM); in test [4], 4 µg/mL (≈ 7.88 µM); in the test on Staphylococcus aureus [6] it was 32 µg/mL (≈ 63.1 µM); with Escherichia coli [9], above 32 µg/mL; with Staphylococcus aureus [23] it was 16 µg/mL (≈ 31.5 µM); against Staphylococcus aureus [24], 4 µg/mL (≈ 7.88 µM). Besides, the minimal inhibitory concentration (MIC) in test [10] is 8 µg/mL (≈ 15.8 µM); against Staphylococcus aureus [11] it was 8 µg/mL (≈ 15.8 µM); in [12] it was above 32 µg/mL; with Staphylococcus aureus [13] it was 8 µg/mL (≈ 15.8 µM); against Escherichia coli [14] it was 16 µg/mL (≈ 31.5 µM); with Staphylococcus aureus [17] it was above 32 µg/mL. Further, the minimum inhibitory concentration (MIC) against Staphylococcus aureus [18] is 8 µg/mL (≈ 15.8 µM); in the test on Staphylococcus aureus [19], 16 µg/mL (≈ 31.5 µM); in test [20], above 32 µg/mL; with Staphylococcus aureus [22], 16 µg/mL (≈ 31.5 µM).

For the compound `O=C1NC(=O)C2(Cc3cc(-c4ccc(N5C[C@H](CO)OC5=O)cc4F)ccc3N3CCCC32)C(=O)N1` (some centres not stated), the minimal inhibitory concentration (MIC) in the test on Staphylococcus aureus [2] is 2 µg/mL (≈ 4.04 µM); in test [4], at most 1 µg/mL; against Staphylococcus aureus [6], 32 µg/mL (≈ 64.7 µM); in the test with Escherichia coli [9], above 32 µg/mL; in the test on Staphylococcus aureus [23] it was 4 µg/mL (≈ 8.09 µM); in the test on Staphylococcus aureus [24], 2 µg/mL (≈ 4.04 µM). Besides, the MIC in test [10] was 2 µg/mL (≈ 4.04 µM); with Staphylococcus aureus [11], 4 µg/mL (≈ 8.09 µM); in test [12], above 32 µg/mL; in the test with Staphylococcus aureus [13], 8 µg/mL (≈ 16.2 µM); against Escherichia coli [14] it was 4 µg/mL (≈ 8.09 µM); against Staphylococcus aureus [17] it was 32 µg/mL (≈ 64.7 µM). In addition, the MIC in the test on Staphylococcus aureus [18] was 8 µg/mL (≈ 16.2 µM); in the test on Staphylococcus aureus [19] it was 4 µg/mL (≈ 8.09 µM); in test [20], 32 µg/mL (≈ 64.7 µM); in the test on Staphylococcus aureus [22], 4 µg/mL (≈ 8.09 µM).

With `CCOC(=O)NC[C@H]1CN(c2ccc(-c3ccc4c(c3)CC3(C(=O)NC(=O)NC3=O)C3COCCN43)c(F)c2)C(=O)O1` (some centres not stated), the minimum inhibitory concentration (MIC) against Staphylococcus aureus [2] is 8 µg/mL (≈ 13.8 µM); in [4], 8 µg/mL (≈ 13.8 µM); against Staphylococcus aureus [6], above 32 µg/mL; against Escherichia coli [9] it was above 32 µg/mL; against Staphylococcus aureus [23] it was 32 µg/mL (≈ 55 µM); against Staphylococcus aureus [24] it was 8 µg/mL (≈ 13.8 µM). Further, the minimal inhibitory concentration (MIC) is 8 µg/mL (≈ 13.8 µM) in [10]; 16 µg/mL (≈ 27.5 µM) in the test with Staphylococcus aureus [11]; above 32 µg/mL in test [12]; 16 µg/mL (≈ 27.5 µM) against Staphylococcus aureus [13]; 8 µg/mL (≈ 13.8 µM) against Escherichia coli [14]; above 32 µg/mL in the test with Staphylococcus aureus [17]. Further, the minimal inhibitory concentration (MIC) came out at 16 µg/mL (≈ 27.5 µM) against Staphylococcus aureus [18], 32 µg/mL (≈ 55 µM) in the test on Staphylococcus aureus [19], 32 µg/mL (≈ 55 µM) in test [20] and 16 µg/mL (≈ 27.5 µM) with Staphylococcus aureus [22].
